Assay results as given in patent US20060205641A1, “[…]4 polypeptides and […]4 polynucleotides” (SmithKline Beecham plc, priority 1999, published 2006).

Tests used:
Assay type in all cases: cell-based
[1] = test system: HEK293 cells transfected with empty vector; assay: FLIPR intracellular calcium assay, HEK293 cells transfected with empty vector; conditions: result in words
[2] = target: T1, hVR4 (Homo sapiens, UniProt Q9HBA0); assay: FLIPR intracellular calcium assay, HEK293 cells transiently expressing hVR4 ([…]4); conditions: for pEC50 hVR4: HEK293 cells transiently expressing hVR4, Fluo-3 calcium, FLIPR, mean ± s.e.mean, n = 3-5, IA = inactive; for effect on intracellular calcium in HEK293-hVR4 cells: result in words
T1 construct: expressed in transfected cells; host or cells: HEK293 (transient expression)
T1 sequence (Q9HBA0 whole entry): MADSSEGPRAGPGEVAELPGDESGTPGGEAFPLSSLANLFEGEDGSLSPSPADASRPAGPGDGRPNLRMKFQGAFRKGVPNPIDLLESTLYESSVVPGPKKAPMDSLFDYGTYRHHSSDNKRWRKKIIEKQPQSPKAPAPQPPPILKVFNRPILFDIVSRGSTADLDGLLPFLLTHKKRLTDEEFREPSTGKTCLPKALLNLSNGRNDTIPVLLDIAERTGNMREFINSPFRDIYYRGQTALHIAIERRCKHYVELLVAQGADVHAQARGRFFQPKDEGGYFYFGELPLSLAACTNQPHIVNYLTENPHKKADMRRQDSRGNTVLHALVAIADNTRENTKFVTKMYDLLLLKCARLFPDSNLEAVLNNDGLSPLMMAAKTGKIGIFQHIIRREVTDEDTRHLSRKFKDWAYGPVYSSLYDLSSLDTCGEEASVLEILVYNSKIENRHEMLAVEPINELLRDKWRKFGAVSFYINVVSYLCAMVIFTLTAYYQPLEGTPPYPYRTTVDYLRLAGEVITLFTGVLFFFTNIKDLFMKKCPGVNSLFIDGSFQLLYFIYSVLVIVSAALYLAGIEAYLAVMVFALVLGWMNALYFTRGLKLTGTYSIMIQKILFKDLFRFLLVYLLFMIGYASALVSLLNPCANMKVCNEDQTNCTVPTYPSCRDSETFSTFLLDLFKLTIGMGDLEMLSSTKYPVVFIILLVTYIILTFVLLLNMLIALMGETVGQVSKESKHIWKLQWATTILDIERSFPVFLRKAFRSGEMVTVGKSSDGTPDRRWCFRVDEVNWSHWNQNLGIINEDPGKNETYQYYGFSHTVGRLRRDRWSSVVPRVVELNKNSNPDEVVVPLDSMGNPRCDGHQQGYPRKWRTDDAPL
Protocol: HEK293 cells transiently expressing hVR1 or hVR4 were seeded into FLIPR96 plates at 25,000 cells/well and cultured overnight. The cells were then loaded in medium containing 4 microM Fluo-3 for 2 hrs, at room temperature, in the dark. The cell plates were then washed 4× with Tyrode containing 1.5 mM calcium and 0.2% BSA. Agonist and antagonist plates were prepared in the same buffer. Cells were preincubated with either antagonist or buffer at room temperature for 30 mins. Agonists additions and calcium measurements were made in the FLIPR (Smart et al., (2000) Br J. Pharmacol. 129, 227-230).

[3] = target: T2, hVR1 (Homo sapiens, UniProt Q8NER1); conditions: for activity at VR1: result in words; for pEC50 hVR1: HEK293 cells transiently expressing hVR1, Fluo-3 calcium, FLIPR, mean ± s.e.mean, n = 3-5, IA = inactive
T2 construct: expressed in transfected cells; host or cells: HEK293 (transient expression)
T2 sequence (Q8NER1 whole entry): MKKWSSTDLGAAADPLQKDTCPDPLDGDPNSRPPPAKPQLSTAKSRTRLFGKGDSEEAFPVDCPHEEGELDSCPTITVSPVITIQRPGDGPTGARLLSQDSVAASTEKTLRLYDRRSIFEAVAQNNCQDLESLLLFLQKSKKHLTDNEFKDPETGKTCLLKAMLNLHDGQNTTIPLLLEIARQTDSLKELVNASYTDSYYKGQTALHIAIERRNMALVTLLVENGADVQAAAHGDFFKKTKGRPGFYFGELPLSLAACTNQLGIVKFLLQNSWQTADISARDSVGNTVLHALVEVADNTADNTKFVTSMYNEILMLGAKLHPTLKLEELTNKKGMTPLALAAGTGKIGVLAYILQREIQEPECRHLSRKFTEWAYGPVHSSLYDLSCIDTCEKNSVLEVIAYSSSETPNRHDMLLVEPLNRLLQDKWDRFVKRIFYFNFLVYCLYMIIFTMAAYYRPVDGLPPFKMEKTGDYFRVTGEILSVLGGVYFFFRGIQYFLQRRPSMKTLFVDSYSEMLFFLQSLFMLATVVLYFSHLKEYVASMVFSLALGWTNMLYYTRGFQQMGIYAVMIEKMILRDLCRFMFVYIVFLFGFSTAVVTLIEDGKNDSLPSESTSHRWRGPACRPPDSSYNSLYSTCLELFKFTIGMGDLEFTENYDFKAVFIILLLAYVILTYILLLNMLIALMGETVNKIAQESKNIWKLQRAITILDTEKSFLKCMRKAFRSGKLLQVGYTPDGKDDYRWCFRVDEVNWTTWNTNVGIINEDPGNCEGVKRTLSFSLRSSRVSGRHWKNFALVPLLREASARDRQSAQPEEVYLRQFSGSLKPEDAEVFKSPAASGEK

[4] = test system: wild type HEK293 cells; assay: FLIPR intracellular calcium assay, wild type HEK293 cells; conditions: result in words

SMILES | effect on intracellular calcium in cells transfected with empty vector [1] | pEC50 hVR4 [2] | selectivity (conclusion) ([2]; VR4 versus VR1, result in words) | effect on intracellular calcium in HEK293-hVR4 cells [2] | activity at VR1 [3] | effect on intracellular calcium in wild type HEK293 cells [4] | pEC50 hVR1 [3] | Emax ([3]; at VR1, compared to capsaicin and RTX)
CCCCCCCCCC(=O)O[C@@H]1[C@@H](C)[C@@]2(O)[C@@H](C=C(CO)C[C@@]3(O)C(=O)C(C)=C[C@@H]23)[C@@H]2C(C)(C)[C@]12OC(=O)CCCCCCCCC [4αPDD, 4α-phorbol-12,13-didecanoate] | without effect | 5.73 ± 0.06 | In conclusion, 4αPDD acts as a VR4 selective agonist. | increased intracellular calcium | inactive | without effect | – | –
CCCCCCCCCCCCCC(=O)O[C@@H]1[C@@H](C)[C@@]2(O)[C@@H](C=C(CO)C[C@]3(O)C(=O)C(C)=C[C@@H]23)[C@@H]2C(C)(C)[C@]12OC(C)=O [PMA, phorbol 12-myristate 13-acetate] | without effect | 6.64 ± 0.06 | – | increased intracellular calcium | partial agonist | without effect | 7.86 ± 0.06 | 0.46
C=C(C)[C@]12C[C@@H](C)[C@@]34O[C@](Cc5ccccc5)(O[C@@H]1[C@@H]3C=C(COC(=O)Cc1ccc(O)c(OC)c1)C[C@]1(O)C(=O)C(C)=C[C@@H]41)O2 [RTX] | – | – | – | – | – | – | 8.93 ± 0.20 | –
